In paper PMC7311426, “An amphipathic peptide with antibiotic activity against multidrug-resistant Gram-negative bacteria” (Nature Communications, 2020):
Values after ≈ are worked out from the molar mass of the structure shown. Where two headings read alike, the source gives them in different places.

Tests used:
Test in all cases: microbe, parasite or virus in culture
K. pneumoniae = format: cell-based, Klebsiella pneumoniae; conditions: for MIC: Klebsiella pneumoniae
P. aeruginosa = format: cell-based, Pseudomonas aeruginosa; design: MIC, Survanta (5%) replicates: unit not given beside the values; conditions: for MIC: Pseudomonas aeruginosa
[1] = system: K. pneumoniae clinical isolates
How it was run: (§1)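 MIC90 from CLSI broth microdilution (M07-A9) in two clinical-isolate panels. US panel (331 isolates, 2010-2012): AA139 diluted in 0.01% acetic acid/0.1% BSA. Worldwide panel (445 isolates, 2011-2013, four regions): CAMHB, with 0.002% Tween 80 added for AA139 and polymyxin B.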

[2] = system: P. aeruginosa clinical isolates
How it was run: as §1

[3] = system: E. coli clinical isolates
How it was run: as §1

[4] = K. pneumoniae ATCC 700603, ESBL, OXA-2/SHV-18, BMD with 5% Survanta lung surfactant, mode, or median where no mode, n=4 to 6, where n=2 differs the higher value
[5] = K. pneumoniae ATCC 700603, ESBL, OXA-2/SHV-18, BMD with 5% Survanta lung surfactant, replicate 1
[6] = K. pneumoniae ATCC 700603, ESBL, OXA-2/SHV-18, BMD with 5% Survanta lung surfactant, replicate 2
[7] = K. pneumoniae ATCC 700603, ESBL, OXA-2/SHV-18, BMD with 50% human serum, mode, or median where no mode, n=4 to 6, where n=2 differs the higher value
[8] = K. pneumoniae ATCC 700603, ESBL, OXA-2/SHV-18, BMD with 50% human serum, replicate 1
[9] = K. pneumoniae ATCC 700603, ESBL, OXA-2/SHV-18, BMD with 50% human serum, replicate 2
[10] = K. pneumoniae BAA-2146, NDM-1, BMD with 5% Survanta lung surfactant, mode, or median where no mode, n=4 to 6, where n=2 differs the higher value
[11] = K. pneumoniae BAA-2146, NDM-1, BMD with 5% Survanta lung surfactant, replicate 1
[12] = K. pneumoniae BAA-2146, NDM-1, BMD with 5% Survanta lung surfactant, replicate 2
[13] = K. pneumoniae BAA-2146, NDM-1, BMD with 5% Survanta lung surfactant, replicate 3
[14] = K. pneumoniae BAA-2146, NDM-1, BMD with 5% Survanta lung surfactant, replicate 4
[15] = ATCC13883, read-out: MIC, Serum (50%)
[16] = ATCC700603, read-out: MIC, Serum (50%)
[17] = ATCC700603, read-out: MIC, Survanta (5%)
[18] = BAA2146, read-out: MIC, Survanta (5%)
[19] = P. aeruginosa FADDI-070, MDR, PmxR, BMD with 5% Survanta lung surfactant, mode, or median where no mode, n=4 to 6, where n=2 differs the higher value
[20] = P. aeruginosa FADDI-070, MDR, PmxR, BMD with 5% Survanta lung surfactant, replicate 1
[21] = P. aeruginosa FADDI-070, MDR, PmxR, BMD with 5% Survanta lung surfactant, replicate 2
[22] = P. aeruginosa FADDI-070, MDR, PmxR, BMD with 5% Survanta lung surfactant, replicate 3
[23] = P. aeruginosa FADDI-070, MDR, PmxR, BMD with 5% Survanta lung surfactant, replicate 4
[24] = P. aeruginosa FADDI-070, MDR, PmxR, BMD with 50% human serum, replicate 1
[25] = P. aeruginosa FADDI-070, MDR, PmxR, BMD with 50% human serum, replicate 2
[26] = P. aeruginosa FADDI-070, MDR, PmxR, BMD with 50% human serum, where n=2 differs the higher value is recorded
[27] = Worldwide isolates 2011-2013, K. pneumoniae n = 114
[28] = Worldwide isolates 2011-2013, P. aeruginosa n = 111
[29] = Worldwide isolates 2011-2013, E. coli n = 112

O=C(O)c1cn(C2CC2)c2cc(N3CCNCC3)c(F)cc2c1=O [Ciprofloxacin, ciprofloxacin]
MIC, Survanta (5%) replicates (K. pneumoniae; K. pneumoniae ATCC 13883, type strain, BMD with 5% Survanta lung surfactant, replicate 1): 0.5
MIC, Survanta (5%) replicates (K. pneumoniae; K. pneumoniae ATCC 13883, type strain, BMD with 5% Survanta lung surfactant, replicate 2): 0.5
MIC, Survanta (5%) replicates (K. pneumoniae; K. pneumoniae ATCC 13883, type strain, BMD with 5% Survanta lung surfactant, replicate 3): 0.125
MIC, Survanta (5%) replicates (K. pneumoniae; K. pneumoniae ATCC 13883, type strain, BMD with 5% Survanta lung surfactant, replicate 4): 0.125
MIC, Serum (50%) replicates (K. pneumoniae; K. pneumoniae ATCC 13883, type strain, BMD with 50% human serum, replicate 1): ≤0.03
MIC, Serum (50%) replicates (K. pneumoniae; K. pneumoniae ATCC 13883, type strain, BMD with 50% human serum, replicate 2): ≤0.03
MIC, Serum (50%) (K. pneumoniae; K. pneumoniae ATCC 13883, type strain, BMD with 50% human serum, where n=2 differs the higher value is recorded): ≤0.03
MIC, Survanta (5%) (K. pneumoniae; [4]): 1
MIC, Survanta (5%) replicates (K. pneumoniae; [5]): 2
MIC, Survanta (5%) replicates (K. pneumoniae; [6]): 2
MIC, Survanta (5%) replicates (K. pneumoniae; K. pneumoniae ATCC 700603, ESBL, OXA-2/SHV-18, BMD with 5% Survanta lung surfactant, replicate 3): 0.5
MIC, Survanta (5%) replicates (K. pneumoniae; K. pneumoniae ATCC 700603, ESBL, OXA-2/SHV-18, BMD with 5% Survanta lung surfactant, replicate 4): 1
MIC, Serum (50%) (K. pneumoniae; [7]): 0.125
MIC, Serum (50%) replicates (K. pneumoniae; [8]): 0.125
MIC, Serum (50%) replicates (K. pneumoniae; [9]): 0.06
MIC, Survanta (5%) (K. pneumoniae; [10]): >64
MIC, Survanta (5%) replicates (K. pneumoniae; [11]): >64
MIC, Survanta (5%) replicates (K. pneumoniae; [12]): >64
MIC, Survanta (5%) replicates (K. pneumoniae; [13]): >64
MIC, Survanta (5%) replicates (K. pneumoniae; [14]): >64
MIC (K. pneumoniae; [15]): ≤ 0.03 µg/mL
MIC (K. pneumoniae; [16]): 0.125 µg/mL (≈ 0.377 µM)
MIC (K. pneumoniae; [17]): 1 µg/mL (≈ 3.02 µM)
MIC (K. pneumoniae; [18]): > 64 µg/mL
MIC, Survanta (5%) (P. aeruginosa; P. aeruginosa ATCC 27853, control strain, BMD with 5% Survanta lung surfactant, mode, or median where no mode, n=4 to 6, where n=2 differs the higher value): 1
MIC, Survanta (5%) replicates (P. aeruginosa; P. aeruginosa ATCC 27853, control strain, BMD with 5% Survanta lung surfactant, replicate 1): 1
MIC, Survanta (5%) replicates (P. aeruginosa; P. aeruginosa ATCC 27853, control strain, BMD with 5% Survanta lung surfactant, replicate 2): 1
MIC, Survanta (5%) replicates (P. aeruginosa; P. aeruginosa ATCC 27853, control strain, BMD with 5% Survanta lung surfactant, replicate 3): 0.5
MIC, Survanta (5%) replicates (P. aeruginosa; P. aeruginosa ATCC 27853, control strain, BMD with 5% Survanta lung surfactant, replicate 4): 0.5
MIC, Serum (50%) replicates (P. aeruginosa; P. aeruginosa ATCC 27853, control strain, BMD with 50% human serum, replicate 1): 0.125
MIC, Survanta (5%) (P. aeruginosa; [19]): 0.5
MIC, Survanta (5%) replicates (P. aeruginosa; [20]): 1
MIC, Survanta (5%) replicates (P. aeruginosa; [21]): 1
MIC, Survanta (5%) replicates (P. aeruginosa; [22]): 0.125
MIC, Survanta (5%) replicates (P. aeruginosa; [23]): 0.5
MIC, Serum (50%) replicates (P. aeruginosa; [24]): 0.06
MIC, Serum (50%) replicates (P. aeruginosa; [25]): 0.06
MIC, Serum (50%) (P. aeruginosa; [26]): 0.06
MIC (P. aeruginosa; ATCC27853, read-out: MIC, Survanta (5%), P. aeruginosa ATCC 27853 control strain, n=2 to 6, mode or median): 1 µg/mL (≈ 3.02 µM)
MIC (P. aeruginosa; read-out: MIC, Serum (50%)): 0.06 µg/mL (≈ 0.181 µM)
MIC (P. aeruginosa; read-out: MIC, Survanta (5%)): 0.5 µg/mL (≈ 1.51 µM)

CNC(C)C1CCC(N)C(OC2C(N)CC(N)C(OC3OCC(C)(O)C(NC)C3O)C2O)O1 (centres unmarked) [Gentamicin, gentamicin, reference compound]
MIC90 ([1]; Klebsiella pneumoniae, US isolates 2010–2012, K. pneumoniae Non-MDR, n = 24): 8 µg/mL (≈ 16.8 µM)
MIC90 ([1]; Klebsiella pneumoniae, US isolates 2010–2012, K. pneumoniae XDR, n = 55): > 32 µg/mL
MIC50 [1, 27]: 0.5 µg/mL (≈ 1.05 µM)
MIC90 [1, 27]: > 32 µg/mL
MIC90 ([2]; Pseudomonas aeruginosa, US isolates 2010–2012, P. aeruginosa Non-MDR, n = 41): > 32 µg/mL
MIC90 ([2]; Pseudomonas aeruginosa, US isolates 2010–2012, P. aeruginosa XDR, n = 37): > 32 µg/mL
MIC50 [2, 28]: 2 µg/mL (≈ 4.19 µM)
MIC90 [2, 28]: > 32 µg/mL
MIC90 ([3]; Escherichia coli): 32 µg/mL (≈ 67 µM)
MIC90 ([3]; Escherichia coli, US isolates 2010–2012, E. coli MDR, n = 31): > 32 µg/mL
MIC90 ([3]; Escherichia coli, US isolates 2010–2012, E. coli Non-MDR, n = 24): 8 µg/mL (≈ 16.8 µM)
MIC50 [3, 29]: 0.5 µg/mL (≈ 1.05 µM)
MIC90 [3, 29]: 32 µg/mL (≈ 67 µM)

COc1cc(Cc2cnc(N)nc2N)cc(OC)c1OC [Trimethoprim]
MIC, Serum (50%) (K. pneumoniae): 0.5
MIC, Serum (50%) replicates (K. pneumoniae): 0.5
MIC, Survanta (5%) (K. pneumoniae): 1
MIC, Survanta (5%) (K. pneumoniae; [4]): 4
MIC, Survanta (5%) replicates (K. pneumoniae; [5]): 4
MIC, Survanta (5%) replicates (K. pneumoniae; [6]): 2
MIC, Serum (50%) (K. pneumoniae; [7]): 32
MIC, Serum (50%) replicates (K. pneumoniae; [8]): 32
MIC, Serum (50%) replicates (K. pneumoniae; [9]): 16
MIC, Survanta (5%) (K. pneumoniae; [10]): >64
MIC, Survanta (5%) replicates (K. pneumoniae; [11]): >64
MIC, Survanta (5%) replicates (K. pneumoniae; [12]): >64
MIC, Survanta (5%) replicates (K. pneumoniae; [13]): >64
MIC, Survanta (5%) replicates (K. pneumoniae; [14]): >64
MIC (K. pneumoniae; [15]): 0.5 µg/mL (≈ 1.72 µM)
MIC (K. pneumoniae; ATCC13883, read-out: MIC, Survanta (5%)): 1 µg/mL (≈ 3.44 µM)
MIC (K. pneumoniae; [16]): 32 µg/mL (≈ 110 µM)
MIC (K. pneumoniae; [17]): 4 µg/mL (≈ 13.8 µM)
MIC (K. pneumoniae; [18]): > 64 µg/mL
MIC, Serum (50%) (P. aeruginosa): >64
MIC, Serum (50%) replicates (P. aeruginosa): >64
MIC, Survanta (5%) (P. aeruginosa): >64
MIC, Survanta (5%) replicates (P. aeruginosa): >64
MIC, Survanta (5%) (P. aeruginosa; [19]): >64
MIC, Survanta (5%) replicates (P. aeruginosa; [20]): >64
MIC, Survanta (5%) replicates (P. aeruginosa; [21]): >64
MIC, Survanta (5%) replicates (P. aeruginosa; [22]): >64
MIC, Survanta (5%) replicates (P. aeruginosa; [23]): >64
MIC, Serum (50%) replicates (P. aeruginosa; [24]): >64
MIC, Serum (50%) replicates (P. aeruginosa; [25]): 64
MIC, Serum (50%) (P. aeruginosa; [26]): ≥64
MIC (P. aeruginosa; ATCC27853, read-out: MIC, Serum (50%)): > 64 µg/mL
MIC (P. aeruginosa; ATCC27853, read-out: MIC, Survanta (5%)): > 64 µg/mL
MIC (P. aeruginosa; read-out: MIC, Serum (50%)): ≥ 64 µg/mL
MIC (P. aeruginosa; read-out: MIC, Survanta (5%)): > 64 µg/mL

polymyxin B [PolymyxinB, reference compound]
MIC50 [1, 27]: 0.03 µg/mL
MIC90 [1, 27]: 0.06 µg/mL
MIC50 [2, 28]: 0.12 µg/mL
MIC90 [2, 28]: 0.25 µg/mL
MIC50 [3, 29]: 0.03 µg/mL
MIC90 [3, 29]: 0.03 µg/mL
